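Growth conditions: 96-well plates. Treatment: test compound, 48 hours, 5 concentrations. Analysis: linear interpolation between bracketing concentrations; unreached endpoints set to highest concentration. The concentration for 50% growth inhibition is given as GI50. TGI marks complete inhibition of growth.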

Common to all, as to assay: growth of human tumour cells (NCI), 48 h
Test [1] deals with OVCAR-3 ovarian.
Test [2] relates to MCF7 breast.
For test [3], the system named is MDA-MB-435.
Test [4] relates to SK-MEL-2 melanoma.
In test [5] the test system is BT-549 breast.
The test system of test [6] is MALME-3M melanoma.
Test [7] has as its system OVCAR-5 ovarian.
In test [8] the test system is ACHN renal.
Test [9] concerns HS 578T breast.
Test [10] concerns NCI-H23 lung.

For the compound `C/C=C(\C)C(=O)N[C@H]1CC[C@]2(C)C3CC[C@@]4(C)C(CC[C@@H]4C(C)N(C)C)C3CCC2[C@H]1OC(C)=O` (stereo not given in full), the GI50 in test [1] is 1.59 µM; in [2], 1.27 µM; in [3], 1.13 µM; in test [4], 2.29 µM; in test [5] it was 2.07 µM; in [6], 1.91 µM. The GI50 was 2.06 µM in test [7], 1.98 µM in test [8], 1.75 µM in test [9] and 1.91 µM in test [10]. Further, the TGI worked out at 4.34 µM in test [1]; 2.92 µM in test [2]; 2.84 µM in [3]; 4.48 µM in test [4]; 5.48 µM in test [5]; 3.73 µM in test [6]. Besides, the TGI in test [7] amounted to 5.65 µM; in test [8], 4.2 µM; in [9], 4.7 µM; in [10], 5.01 µM.

As to `COc1ccc2c(c1)C(=O)/C(=C/c1cccc(OCC(=O)Nc3nc4c(s3)CCCC4)c1)O2`, the GI50 is 0.304 µM in [1]; 2.83 µM in test [2]; 2.59 µM in test [3]; 0.577 µM in test [4]; 1.74 µM in [5]; 0.8 µM in [6]. In addition, the GI50 is 1.69 µM in test [7], 1.47 µM in [8], 2.28 µM in test [9] and 0.636 µM in test [10]. Further, the TGI in test [1] was 0.865 µM; in test [2] it was 11.8 µM; in test [3] it was 9.42 µM; in test [4], 1.34 µM; in test [5], 4.49 µM; in test [6] it was 2.86 µM. For the same compound, the TGI in [7] came to 3.61 µM; in test [8] it was 2.79 µM; in [9], 10.1 µM; in test [10], 5.62 µM.

`COc1ccc(N(CC(=O)NCCC[Te]c2ccccc2)C(=O)c2ccccc2)cc1`: the GI50 was 5.75 µM in test [1]; 3.17 µM in test [2]; 8.06 µM in test [3]; 4.19 µM in test [4]; 2.39 µM in test [5]; 16.7 µM in test [6]. For the same compound, the GI50 was 3.8 µM in [7], 3.17 µM in test [8], 2.97 µM in test [9] and 3.17 µM in test [10]. Moreover, the TGI was found to be 19.8 µM in test [1]; 10.8 µM in [2]; 30.2 µM in [3]; 15.3 µM in test [4]; 8.68 µM in test [5]; 34.7 µM in test [6]. The TGI in [7] stood at 11.4 µM; in test [8] it was 9.6 µM; in [9], 8.41 µM; in test [10], 9.36 µM.

As to `Oc1ccc2cc(Br)ccc2c1-c1c(O)ccc2cc(Br)ccc12`, the GI50 in test [1] is 3.21 µM; in test [2] it was 2.49 µM; in test [3] it was 3.04 µM; in test [4] it was 3.82 µM; in test [5], 3.86 µM; in [6] it was 2.19 µM. The GI50 is 4.23 µM in test [7], 3.02 µM in test [8], 3.7 µM in test [9] and 2.23 µM in [10]. Further, the TGI in [1] turned out to be 9.77 µM; in [2] it was 6.76 µM; in test [3], 11.2 µM; in test [4] it was 13.5 µM; in test [5] it was 12.4 µM; in test [6], 6.05 µM. Besides, the TGI in [7] came to 15.6 µM; in [8] it was 11.3 µM; in [9] it was 23.3 µM; in test [10] it was 5.82 µM.
